Tests used:
CDK1/Cyclin E1 = CDK1/Cyclin E1 (Homo sapiens, UniProt P06493); assay: NanoBRET live-cell target engagement, CDK1-NanoLuc/Cyclin E1 in HEK-293; format: binding; details: CDK1/E1, 10µM
CDK2/Cyclin E1 = CDK2/Cyclin E1 (Homo sapiens, UniProt P24941); assay: NanoBRET live-cell target engagement, CDK2-NanoLuc/Cyclin E1 in HEK-293; format: binding; details: CDK2/E1, 10µM
CDK3/Cyclin E1 = CDK3/Cyclin E1 (Homo sapiens, UniProt Q00526); assay: NanoBRET live-cell target engagement, CDK3-NanoLuc/Cyclin E1 in HEK-293; format: binding; details: CDK3/E1, 10µM
Chain of CDK3/Cyclin E1 (Q00526 whole entry): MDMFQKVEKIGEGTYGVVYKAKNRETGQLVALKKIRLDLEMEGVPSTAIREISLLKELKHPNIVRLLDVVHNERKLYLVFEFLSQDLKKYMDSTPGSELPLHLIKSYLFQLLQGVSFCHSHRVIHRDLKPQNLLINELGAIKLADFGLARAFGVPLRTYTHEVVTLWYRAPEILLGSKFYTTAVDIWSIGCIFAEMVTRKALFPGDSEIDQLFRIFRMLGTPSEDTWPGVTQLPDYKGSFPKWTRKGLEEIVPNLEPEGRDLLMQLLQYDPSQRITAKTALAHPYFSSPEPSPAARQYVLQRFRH
Chain of CDK3/Cyclin E1 (P24864 whole entry partner): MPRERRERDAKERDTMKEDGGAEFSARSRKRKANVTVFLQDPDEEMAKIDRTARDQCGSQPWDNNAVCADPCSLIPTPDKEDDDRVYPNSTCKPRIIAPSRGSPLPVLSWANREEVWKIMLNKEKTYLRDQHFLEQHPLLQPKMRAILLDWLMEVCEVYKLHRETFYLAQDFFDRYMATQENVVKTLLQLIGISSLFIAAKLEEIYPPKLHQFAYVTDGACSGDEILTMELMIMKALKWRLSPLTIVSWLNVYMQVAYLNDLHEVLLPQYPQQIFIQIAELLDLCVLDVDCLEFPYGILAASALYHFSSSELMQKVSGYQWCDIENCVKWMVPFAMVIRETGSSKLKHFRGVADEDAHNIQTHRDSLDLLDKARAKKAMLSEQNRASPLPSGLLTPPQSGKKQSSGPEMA

CDK4/Cyclin D1 = CDK4/Cyclin D1 (Homo sapiens, UniProt P11802); assay: NanoBRET live-cell target engagement, NanoLuc-CDK4/Cyclin D1 in HEK-293; format: binding; details: CDK4/D1, 10µM
CDK5/CDK5R1 = CDK5/CDK5R1 (Homo sapiens, UniProt Q00535); assay: NanoBRET live-cell target engagement, CDK5-NanoLuc/CDK5R1 in HEK-293; format: binding; details: CDK5/CDK5R1, 10µM
CDK6/Cyclin D1 = CDK6/Cyclin D1 (Homo sapiens, UniProt Q00534); assay: NanoBRET live-cell target engagement, NanoLuc-CDK6/Cyclin D1 in HEK-293; format: binding; details: CDK6/D1, 10µM
CDK7 = CDK7 (Homo sapiens, UniProt P50613); assay: NanoBRET live-cell target engagement, NanoLuc-CDK7 in HEK-293; format: binding; details: CDK7, 10µM
Chain of CDK7 (P50613 whole entry): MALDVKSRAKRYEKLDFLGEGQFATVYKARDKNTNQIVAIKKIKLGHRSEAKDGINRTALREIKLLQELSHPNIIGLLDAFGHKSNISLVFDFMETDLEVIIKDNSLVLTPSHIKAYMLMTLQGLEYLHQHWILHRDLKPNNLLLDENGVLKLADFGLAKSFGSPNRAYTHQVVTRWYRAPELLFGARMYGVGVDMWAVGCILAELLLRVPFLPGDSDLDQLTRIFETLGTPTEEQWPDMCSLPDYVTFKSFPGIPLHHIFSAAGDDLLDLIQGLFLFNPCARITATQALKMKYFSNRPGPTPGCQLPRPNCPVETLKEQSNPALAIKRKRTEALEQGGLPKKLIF

CDK8/Cyclin C = CDK8/Cyclin C (Homo sapiens, UniProt P49336); assay: NanoBRET live-cell target engagement, NanoLuc-CDK8/Cyclin C in HEK-293; format: binding; details: CDK8/C, 10µM
CDK9/Cyclin K = CDK9/Cyclin K (Homo sapiens, UniProt P50750); assay: NanoBRET live-cell target engagement, NanoLuc-CDK9/Cyclin K in HEK-293; format: binding; details: CDK9/K, 10µM
Chain of CDK9/Cyclin K (P50750 whole entry): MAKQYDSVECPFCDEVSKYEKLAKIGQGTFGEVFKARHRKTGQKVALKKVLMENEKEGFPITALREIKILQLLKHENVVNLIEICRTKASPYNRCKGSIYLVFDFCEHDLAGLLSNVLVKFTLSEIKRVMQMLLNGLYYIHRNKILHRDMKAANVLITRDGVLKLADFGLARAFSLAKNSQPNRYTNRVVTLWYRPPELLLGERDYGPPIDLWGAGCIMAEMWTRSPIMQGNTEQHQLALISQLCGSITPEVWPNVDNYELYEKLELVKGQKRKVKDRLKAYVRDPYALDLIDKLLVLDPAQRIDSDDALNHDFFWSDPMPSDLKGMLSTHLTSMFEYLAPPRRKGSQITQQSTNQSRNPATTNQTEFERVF
Chain of CDK9/Cyclin K (O75909 whole entry partner): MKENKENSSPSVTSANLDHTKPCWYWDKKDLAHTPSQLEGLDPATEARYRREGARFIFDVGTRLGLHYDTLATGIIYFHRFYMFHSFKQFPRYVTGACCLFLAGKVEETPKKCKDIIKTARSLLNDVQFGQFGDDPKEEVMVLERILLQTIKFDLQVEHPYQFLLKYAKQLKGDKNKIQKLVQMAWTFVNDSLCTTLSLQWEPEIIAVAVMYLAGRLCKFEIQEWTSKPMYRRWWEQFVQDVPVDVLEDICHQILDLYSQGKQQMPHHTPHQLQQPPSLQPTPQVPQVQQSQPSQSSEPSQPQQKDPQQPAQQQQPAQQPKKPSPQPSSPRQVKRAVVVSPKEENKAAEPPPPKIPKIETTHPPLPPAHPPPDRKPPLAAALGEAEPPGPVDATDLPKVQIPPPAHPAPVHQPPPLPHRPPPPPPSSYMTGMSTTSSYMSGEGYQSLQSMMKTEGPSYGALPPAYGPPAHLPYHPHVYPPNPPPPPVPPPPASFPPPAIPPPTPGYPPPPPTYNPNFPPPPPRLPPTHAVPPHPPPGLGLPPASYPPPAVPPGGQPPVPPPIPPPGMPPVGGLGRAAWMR

CDK11A/Cyclin L2 = target: T1, CDK11A/Cyclin L2 (Homo sapiens, UniProt Q9UQ88); assay: NanoBRET live-cell target engagement, CDK11A-NanoLuc/Cyclin L2 in HEK-293; format: binding; details: CDK11a/L2, 10µM
T1 sequence (Q9UQ88 1-783): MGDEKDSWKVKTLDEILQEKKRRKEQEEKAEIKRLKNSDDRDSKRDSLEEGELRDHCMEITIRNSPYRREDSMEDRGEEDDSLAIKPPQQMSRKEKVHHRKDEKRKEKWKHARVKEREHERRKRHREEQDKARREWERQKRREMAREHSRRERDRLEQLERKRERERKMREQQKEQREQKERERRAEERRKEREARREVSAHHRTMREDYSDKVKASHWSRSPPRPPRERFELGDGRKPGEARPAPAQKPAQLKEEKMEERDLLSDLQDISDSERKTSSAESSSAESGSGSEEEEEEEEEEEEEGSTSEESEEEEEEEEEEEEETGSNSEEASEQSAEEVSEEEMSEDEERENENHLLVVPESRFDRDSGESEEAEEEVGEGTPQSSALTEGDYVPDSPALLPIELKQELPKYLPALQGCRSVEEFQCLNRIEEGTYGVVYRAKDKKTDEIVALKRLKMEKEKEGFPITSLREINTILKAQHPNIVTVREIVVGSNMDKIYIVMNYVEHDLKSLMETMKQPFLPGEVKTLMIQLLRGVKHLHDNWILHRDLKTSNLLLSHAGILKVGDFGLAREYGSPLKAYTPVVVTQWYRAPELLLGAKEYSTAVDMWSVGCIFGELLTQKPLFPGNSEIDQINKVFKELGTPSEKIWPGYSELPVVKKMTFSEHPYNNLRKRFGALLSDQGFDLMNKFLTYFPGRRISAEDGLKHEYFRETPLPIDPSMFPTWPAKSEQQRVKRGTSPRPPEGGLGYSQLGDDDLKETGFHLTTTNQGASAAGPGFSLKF

CDK11B/Cyclin L2 = CDK11B/Cyclin L2 (Homo sapiens, UniProt P21127); assay: NanoBRET live-cell target engagement, CDK11B-NanoLuc/Cyclin L2 in HEK-293; format: binding; details: CDK11b/L2, 10µM
CDK12/Cyclin K = CDK12/Cyclin K (Homo sapiens, UniProt Q9NYV4); assay: NanoBRET live-cell target engagement, CDK12-NanoLuc/Cyclin K in HEK-293; format: binding; details: CDK12/K, 10µM
CDK13/Cyclin K = CDK13/Cyclin K (Homo sapiens, UniProt Q14004); assay: NanoBRET live-cell target engagement, CDK13-NanoLuc/Cyclin K in HEK-293; format: binding; details: CDK13/K, 10µM
Chain of CDK13/Cyclin K (O75909 whole entry): as the sequence (O75909 whole entry partner) above
Chain of CDK13/Cyclin K (Q14004 other isoform, or with tags, fused parts or gaps): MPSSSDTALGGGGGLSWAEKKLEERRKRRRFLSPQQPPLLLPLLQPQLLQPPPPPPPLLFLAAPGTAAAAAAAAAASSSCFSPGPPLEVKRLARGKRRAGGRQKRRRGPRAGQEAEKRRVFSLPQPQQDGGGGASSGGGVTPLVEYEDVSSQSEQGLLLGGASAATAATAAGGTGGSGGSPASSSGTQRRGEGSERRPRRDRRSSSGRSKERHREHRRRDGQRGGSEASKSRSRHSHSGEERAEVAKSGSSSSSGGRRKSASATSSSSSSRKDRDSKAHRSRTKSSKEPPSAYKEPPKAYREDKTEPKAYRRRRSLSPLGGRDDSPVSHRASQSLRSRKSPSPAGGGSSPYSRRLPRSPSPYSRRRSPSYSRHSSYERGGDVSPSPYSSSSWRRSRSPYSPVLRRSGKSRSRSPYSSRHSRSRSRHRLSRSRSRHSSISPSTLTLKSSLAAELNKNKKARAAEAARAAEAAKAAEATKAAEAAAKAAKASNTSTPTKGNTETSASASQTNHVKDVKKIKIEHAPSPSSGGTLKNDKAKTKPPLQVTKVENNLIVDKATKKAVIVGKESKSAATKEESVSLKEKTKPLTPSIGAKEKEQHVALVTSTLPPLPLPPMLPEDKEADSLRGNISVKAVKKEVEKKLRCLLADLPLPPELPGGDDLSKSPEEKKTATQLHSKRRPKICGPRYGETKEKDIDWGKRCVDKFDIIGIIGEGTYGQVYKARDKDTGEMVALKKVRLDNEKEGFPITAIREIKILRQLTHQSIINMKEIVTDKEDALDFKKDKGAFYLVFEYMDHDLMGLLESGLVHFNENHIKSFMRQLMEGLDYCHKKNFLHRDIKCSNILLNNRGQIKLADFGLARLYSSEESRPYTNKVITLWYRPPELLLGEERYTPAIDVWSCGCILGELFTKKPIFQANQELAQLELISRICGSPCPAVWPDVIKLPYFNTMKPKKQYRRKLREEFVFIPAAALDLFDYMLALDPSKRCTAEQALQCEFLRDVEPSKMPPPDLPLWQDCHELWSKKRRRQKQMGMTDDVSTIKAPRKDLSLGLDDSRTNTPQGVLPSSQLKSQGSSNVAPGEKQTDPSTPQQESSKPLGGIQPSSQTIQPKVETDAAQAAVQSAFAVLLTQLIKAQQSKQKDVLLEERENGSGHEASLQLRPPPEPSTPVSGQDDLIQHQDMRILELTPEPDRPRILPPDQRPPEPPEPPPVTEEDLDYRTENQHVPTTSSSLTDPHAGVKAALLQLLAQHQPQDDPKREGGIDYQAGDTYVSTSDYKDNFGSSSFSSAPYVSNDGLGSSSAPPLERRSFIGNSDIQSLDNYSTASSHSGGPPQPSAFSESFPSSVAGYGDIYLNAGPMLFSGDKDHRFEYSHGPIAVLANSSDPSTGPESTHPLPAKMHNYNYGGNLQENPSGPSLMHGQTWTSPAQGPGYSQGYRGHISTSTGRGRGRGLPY

CDK14/Cyclin Y = CDK14/Cyclin Y (Homo sapiens, UniProt O94921); assay: NanoBRET live-cell target engagement, CDK14-NanoLuc/Cyclin Y in HEK-293; format: binding; details: CDK14/Y, 10µM
CDK15/Cyclin Y = CDK15/Cyclin Y (Homo sapiens, UniProt Q96Q40); assay: NanoBRET live-cell target engagement, NanoLuc-CDK15/Cyclin Y in HEK-293; format: binding; details: CDK15/Y, 10µM
Chain of CDK15/Cyclin Y (Q96Q40 whole entry): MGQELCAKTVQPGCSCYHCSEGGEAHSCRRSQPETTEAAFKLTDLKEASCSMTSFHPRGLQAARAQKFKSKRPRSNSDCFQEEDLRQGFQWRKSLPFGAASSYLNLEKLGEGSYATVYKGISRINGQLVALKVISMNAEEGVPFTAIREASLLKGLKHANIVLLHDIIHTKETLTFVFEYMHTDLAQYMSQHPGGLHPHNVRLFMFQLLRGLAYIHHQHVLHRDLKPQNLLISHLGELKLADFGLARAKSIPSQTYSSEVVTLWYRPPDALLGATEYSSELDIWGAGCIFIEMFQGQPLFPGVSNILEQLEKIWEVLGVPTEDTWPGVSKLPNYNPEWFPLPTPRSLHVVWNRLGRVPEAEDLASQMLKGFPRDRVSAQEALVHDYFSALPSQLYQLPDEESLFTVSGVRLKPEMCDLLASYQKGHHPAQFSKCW
Chain of CDK15/Cyclin Y (Q8ND76 whole entry partner): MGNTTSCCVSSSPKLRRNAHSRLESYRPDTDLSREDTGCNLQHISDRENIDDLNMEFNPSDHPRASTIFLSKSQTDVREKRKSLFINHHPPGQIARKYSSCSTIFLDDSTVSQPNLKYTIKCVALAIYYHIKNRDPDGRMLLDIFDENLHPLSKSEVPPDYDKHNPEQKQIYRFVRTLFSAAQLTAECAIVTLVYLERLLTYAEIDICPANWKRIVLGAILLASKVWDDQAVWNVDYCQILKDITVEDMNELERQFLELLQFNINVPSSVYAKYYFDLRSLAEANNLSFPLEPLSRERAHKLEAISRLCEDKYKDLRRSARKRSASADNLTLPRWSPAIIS

CDK16/Cyclin Y = CDK16/Cyclin Y (Homo sapiens, UniProt Q00536); assay: NanoBRET live-cell target engagement, CDK16-NanoLuc/Cyclin Y in HEK-293; format: binding; details: CDK16/Y; 10µM
CDK17/Cyclin Y = CDK17/Cyclin Y (Homo sapiens, UniProt Q00537); assay: NanoBRET live-cell target engagement, CDK17-NanoLuc/Cyclin Y in HEK-293; format: binding; details: CDK17/Y, 10µM
CDK18/Cyclin Y = CDK18/Cyclin Y (Homo sapiens, UniProt Q07002); assay: NanoBRET live-cell target engagement, CDK18-NanoLuc/Cyclin Y in HEK-293; format: binding; details: CDK18/Y, 10µM
CDK20/Cyclin H = CDK20/Cyclin H (Homo sapiens, UniProt Q8IZL9); assay: NanoBRET live-cell target engagement, NanoLuc-CDK20/Cyclin H in HEK-293; format: binding; details: CDK20/H; 10µM
CDK19/Cyclin C = CDK19/Cyclin C (Homo sapiens, UniProt Q9BWU1); assay: NanoBRET live-cell target engagement, NanoLuc-CDK19/Cyclin C in HEK-293; details: CDK19/C, 10µM
CDK10/Cyclin L2 = CDK10/Cyclin L2 (Homo sapiens, UniProt Q15131); assay: NanoBRET live-cell target engagement, CDK10-NanoLuc/Cyclin L2 in HEK-293; details: CDK10/L2, 10µM
Chain of CDK10/Cyclin L2 (Q15131 whole entry): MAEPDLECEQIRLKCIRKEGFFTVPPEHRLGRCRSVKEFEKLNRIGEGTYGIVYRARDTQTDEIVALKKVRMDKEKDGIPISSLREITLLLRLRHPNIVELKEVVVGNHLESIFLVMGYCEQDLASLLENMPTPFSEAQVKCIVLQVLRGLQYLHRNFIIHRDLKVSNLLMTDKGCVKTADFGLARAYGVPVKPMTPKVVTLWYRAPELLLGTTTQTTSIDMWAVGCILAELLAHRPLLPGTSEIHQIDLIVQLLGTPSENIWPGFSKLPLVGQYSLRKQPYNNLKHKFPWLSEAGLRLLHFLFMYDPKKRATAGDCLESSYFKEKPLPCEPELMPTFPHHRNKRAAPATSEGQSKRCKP

Chain of CDK1/Cyclin E1 (P06493 whole entry): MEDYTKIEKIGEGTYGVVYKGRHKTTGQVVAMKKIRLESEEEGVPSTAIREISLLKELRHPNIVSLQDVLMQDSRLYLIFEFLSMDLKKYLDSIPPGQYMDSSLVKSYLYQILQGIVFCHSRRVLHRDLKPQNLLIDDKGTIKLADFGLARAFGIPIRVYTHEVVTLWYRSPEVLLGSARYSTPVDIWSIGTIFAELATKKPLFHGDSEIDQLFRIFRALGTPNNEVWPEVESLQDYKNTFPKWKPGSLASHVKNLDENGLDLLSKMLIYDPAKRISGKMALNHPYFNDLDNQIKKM
Chain of CDK1/Cyclin E1 (P24864 whole entry partner): as the sequence (P24864 whole entry partner) above

CCC(CO)Nc1nc(Nc2cccc(-c3ccccn3)c2)c2ncn(C(C)C)c2n1.Cl.O [(R) - DRF053]
Inhibition at 10µM (%) Replicate 1 (CDK1/Cyclin E1): 46.5%
Inhibition at 10µM (%) Replicate 2 (CDK1/Cyclin E1): 41.5%
Inhibition at 10µM (%) Average (CDK1/Cyclin E1; average of replicates): 44.0%
Inhibition at 10µM (%) Replicate 1 (CDK2/Cyclin E1): 75.6%
Inhibition at 10µM (%) Replicate 2 (CDK2/Cyclin E1): 76.1%
Inhibition at 10µM (%) Average (CDK2/Cyclin E1; average of replicates): 75.9%
Inhibition at 10µM (%) Replicate 1 (CDK3/Cyclin E1): 72.1%
Inhibition at 10µM (%) Replicate 2 (CDK3/Cyclin E1): 71.8%
Inhibition at 10µM (%) Average (CDK3/Cyclin E1; average of replicates): 72.0%
Inhibition at 10µM (%) Replicate 1 (CDK4/Cyclin D1): 19.9%
Inhibition at 10µM (%) Replicate 2 (CDK4/Cyclin D1): 22.3%
Inhibition at 10µM (%) Average (CDK4/Cyclin D1; average of replicates): 21.1%
Inhibition at 10µM (%) Replicate 1 (CDK5/CDK5R1): 69.5%
Inhibition at 10µM (%) Replicate 2 (CDK5/CDK5R1): 71.6%
Inhibition at 10µM (%) Average (CDK5/CDK5R1; average of replicates): 70.6%
Inhibition at 10µM (%) Replicate 1 (CDK6/Cyclin D1): 6.0%
Inhibition at 10µM (%) Replicate 2 (CDK6/Cyclin D1): 6.7%
Inhibition at 10µM (%) Average (CDK6/Cyclin D1; average of replicates): 6.4%
Inhibition at 10µM (%) Replicate 1 (CDK7): 45.0%
Inhibition at 10µM (%) Replicate 2 (CDK7): 59.3%
Inhibition at 10µM (%) Average (CDK7; average of replicates): 52.2%
Inhibition at 10µM (%) Replicate 1 (CDK8/Cyclin C): 6.6%
Inhibition at 10µM (%) Replicate 2 (CDK8/Cyclin C): -1.1%
Inhibition at 10µM (%) Average (CDK8/Cyclin C; average of replicates): 2.7%
Inhibition at 10µM (%) Replicate 1 (CDK9/Cyclin K): 18.8%
Inhibition at 10µM (%) Replicate 2 (CDK9/Cyclin K): 27.7%
Inhibition at 10µM (%) Average (CDK9/Cyclin K; average of replicates): 23.2%
Inhibition at 10µM (%) Replicate 1 (CDK11A/Cyclin L2): 8.6%
Inhibition at 10µM (%) Replicate 2 (CDK11A/Cyclin L2): 33.3%
Inhibition at 10µM (%) Average (CDK11A/Cyclin L2; average of replicates): 21.0%
Inhibition at 10µM (%) Replicate 1 (CDK11B/Cyclin L2): 11.4%
Inhibition at 10µM (%) Replicate 2 (CDK11B/Cyclin L2): 7.8%
Inhibition at 10µM (%) Average (CDK11B/Cyclin L2; average of replicates): 9.6%
Inhibition at 10µM (%) Replicate 1 (CDK12/Cyclin K): 4.1%
Inhibition at 10µM (%) Replicate 2 (CDK12/Cyclin K): -13.6%
Inhibition at 10µM (%) Average (CDK12/Cyclin K; average of replicates): -4.7%
Inhibition at 10µM (%) Replicate 1 (CDK13/Cyclin K): 7.7%
Inhibition at 10µM (%) Replicate 2 (CDK13/Cyclin K): -21.5%
Inhibition at 10µM (%) Average (CDK13/Cyclin K; average of replicates): -6.9%
Inhibition at 10µM (%) Replicate 1 (CDK14/Cyclin Y): 8.2%
Inhibition at 10µM (%) Replicate 2 (CDK14/Cyclin Y): 16.5%
Inhibition at 10µM (%) Average (CDK14/Cyclin Y; average of replicates): 12.3%
Inhibition at 10µM (%) Replicate 1 (CDK15/Cyclin Y): 25.0%
Inhibition at 10µM (%) Replicate 2 (CDK15/Cyclin Y): 29.8%
Inhibition at 10µM (%) Average (CDK15/Cyclin Y; average of replicates): 27.4%
Inhibition at 10µM (%) Replicate 1 (CDK16/Cyclin Y): 15.7%
Inhibition at 10µM (%) Replicate 2 (CDK16/Cyclin Y): 16.9%
Inhibition at 10µM (%) Replicate 1 (CDK17/Cyclin Y): 29.1%
Inhibition at 10µM (%) Replicate 2 (CDK17/Cyclin Y): 25.1%
Inhibition at 10µM (%) Average (CDK17/Cyclin Y; average of replicates): 27.1%
Inhibition at 10µM (%) Replicate 1 (CDK18/Cyclin Y): 37.9%
Inhibition at 10µM (%) Replicate 2 (CDK18/Cyclin Y): 40.9%
Inhibition at 10µM (%) Average (CDK18/Cyclin Y; average of replicates): 39.4%
Inhibition at 10µM (%) Replicate 1 (CDK20/Cyclin H): 16.2%
Inhibition at 10µM (%) Replicate 2 (CDK20/Cyclin H): 18.8%
Inhibition at 10µM (%) Replicate 1 (CDK19/Cyclin C): 16.0%
Inhibition at 10µM (%) Replicate 2 (CDK19/Cyclin C): -0.8%
Inhibition at 10µM (%) Average (CDK19/Cyclin C; average of replicates): 7.6%
Inhibition at 10µM (%) Replicate 1 (CDK10/Cyclin L2): 13.4%
Inhibition at 10µM (%) Replicate 2 (CDK10/Cyclin L2): 27.0%
Inhibition at 10µM (%) Average (CDK10/Cyclin L2; average of replicates): 20.2%

Source: paper PMC7265341, “Quantifying CDK inhibitor selectivity in live cells” (Nature Communications, 2020)
